Measurements as given in patent publication US8034799B2, “Preventing and/or treating cardiovascular disease and/or associated heart failure” (Philera New Zealand Limited, priority 2002, dated 2011).
Where two headings read alike, the source gives them in different places.

Tests used:
diabetic rats = conditions: treatment of diabetic rats; cited from earlier work
[1] = system: diabetic (STZ) and nondiabetic male Wistar rats; conditions: for Renal clearance Cu / Renal clearance Fe / Serum Cu / Serum Fe: trientine; for Renal clearance Cu / Renal clearance Fe: final hour of experiment; for Serum Cu / Serum Fe: terminal blood sample
Description: (§1) Following surgery and a 20 min stabilization period, the experimental protocol was started. Trientine was administered intravenously over 60 s in hourly doses of increasing concentration (0.1, 1.0, 10 and 100 mg·kg^−1 in 75 μl saline followed by 125 μl saline flush). Control animals received an equivalent volume of saline. Urine was collected in 15 min aliquots throughout the experiment in pre-weighed polyethylene epindorph tubes. At the end of the experiment a terminal blood sample was taken by cardiac puncture and the separated serum stored at −80° C. until future analysis. Hearts were removed through a rapid mid-sternal thoracotomy and processed as described below.
Serum: Terminal blood samples were centrifuged and serum treated and stored as per urine until analysis. From the trace metal content of serum from the terminal blood sample and urine collected over the final hour of the experiment, renal clearance was calculated using the following equation: renal clearance of trace metal=(a) the concentration of metal in urine (μg·μl^−1) times (b) the rate of urine flow (μl·min^−1), divided by (c) the concentration of metal in serum (μg·μl^−1)

diabetic Wistar rats = conditions: six months of treatment
[2] = system: STZ diabetic and normal Wistar rats; conditions: for Heart weight / Heart weight (g)/BW (g) / Left Ventricular wall thickness / Left Ventricular wall thickness per BW: mean ± SD
[3] = system: diabetic (STZ) and nondiabetic male Wistar rats
From the text: (§2) Nondiabetic animals received an equivalent volume of saline.
(§3) All animals were fasted overnight prior to surgery but continued to have ad libitum access to deionized water. […] The femoral artery and vein were cannulated with a solid-state blood pressure transducer (Mikrotip™ 1.4F, Millar Instruments, Texas, USA) and a saline filled PE 50 catheter respectively. The ureters were exposed via a midline abdominal incision, cannulated using polyethylene catheters (external diameter 0.9 mm, internal diameter 0.5 mm) and the wound sutured closed. The trachea was cannulated and the animal ventilated at 70-80 breaths·min^−1 with air supplemented with O2 (Pressure Controlled Ventilator, Kent Scientific, Connecticut, USA). The respiratory rate and end-tidal pressure (10-15 cm H2O) were adjusted to maintain end-tidal CO2 at 35-40 mm Hg (SC-300 CO2 Monitor, Pryon Corporation, Wisconsin, USA). Body temperature was maintained at 37° C. throughout surgery and the experiment by a heating pad. Estimated fluid loss was replaced with intravenous administration of 154 mmol·l^−1 NaCl solution at a rate of 5 ml·kg^−1·h^−1.
as §1
Instrumentation: A Perkin Elmer (PE) Model 3100 Atomic Absorption Spectrophotometer equipped with a PE HGA-600 Graphite Furnace and PE AS-60 Furnace Autosampler was used for Cu and Fe determinations in urine. Deuterium background correction was employed. A Cu or Fe hollow-cathode lamp (Perkin Elmer Corporation) was used and operated at either 10 W (Cu) or 15 W (Fe). The 324.8 nm atomic line was used for Cu and the 248.3 nm atomic line for Fe. The slit width for both Cu and Fe was 0.7 nm. Pyrolytically coated graphite tubes were used for all analyses. The injection volume was 20 μL. A typical graphite furnace temperature program is shown below.
Urine: Urine was collected in pre-weighed 1.5 ml micro test tubes (eppendorf). After reweighing, the urine specimens were centrifuged and the supernatant diluted 25:1 with 0.02 M 69% Aristar grade HNO3. The sample was stored at 4° C. prior to GF-AAS analysis. If it was necessary to store a sample for a period in excess of 2 weeks, it was frozen and kept at −20° C.
Statistical analyses were as follows: All values are expressed as mean±SEM and P values <0.05 were considered statistically significant. Student's unpaired t-test was initially used to test for weight and glucose differences between the diabetic and control groups.

[4] = system: STZ diabetic and normal Wistar rats
Description: On the last day of the experiment, animals were anesthetized (5% halothane and 2 L·min^−1 O2), and heparin (500 IU·kg^−1) (Weddel Pharmaceutical Ltd., London) administered intravenously via tail vein. […] Hearts were then placed in the isolated perfused working heart apparatus.
The aortic root of the heart was immediately ligated to the aortic cannula of the perfusion apparatus. Retrograde (Langendorff) perfusion at a hydrostatic pressure of 100 cm H2O and at 37° C. was established and continued for 5 min while cannulation of the left atrium via the pulmonary vein was completed. The non-working (Langendorff) preparation was then converted to the working heart model by switching the supply of perfusate buffer from the aorta to the left atrium at a filling pressure of 10 cm H2O. […] The perfusion solution was Krebs-Henseleit bicarbonate buffer (mM: KCl 4.7, CaCl2 2.3, KH2PO4 1.2, MgSO4 1.2, NaCl 118, and NaHCO3 25), pH 7.4 containing 11 mM glucose and it was continuously gassed with 95% O2:5% CO2. The buffer was also continuously filtered in-line (initial 8 μm, following 0.4 μm cellulose acetate filters; Sartorius, Germany). The temperature of the entire perfusion apparatus was maintained by water jackets and buffer temperature was continuously monitored and adjusted to maintain hearts at 37° C. throughout perfusion.
A modified 24 g plastic intravenous cannula (Becton Dickson, Utah, USA) was inserted into the left ventricle via the apex of the heart using the normal introducer-needle. This cannula was subsequently attached to a SP844 piezo-electric pressure transducer (AD Instruments) to continuously monitor left ventricular pressure. Aortic pressure was continuously monitored through a side arm of the aortic cannula with a pressure transducer (Statham Model P23XL, Gould Inc., CA, USA). The heart was paced (Digitimer Ltd, Heredfordshire, England) at a rate of 300 bpm by means of electrodes attached to the aortic and pulmonary vein cannulae using supra-threshold voltages with pulses of 5-ms duration from the square wave generator.

[5] = system: diabetic (STZ) and nondiabetic male Wistar rats; conditions: for Cu content of heart tissue / Fe content of heart tissue: trientine treated
Description: as §1
Cu, Fe and Zn in tissue digests were also determined at Hill Laboratories (Hamilton, New Zealand) using either a PE Sciex Elan-6000 or PE Sciex Elan-6100 DRC ICP-MS.
Heart: Following removal from the animal, the heart was cleaned of excess tissue, rinsed in buffer to remove excess blood, blotted dry and a wet ventricular weight recorded. Using titanium instruments a segment of left ventricular muscle was dissected and placed in a pre-weighed 5.0 ml polystyrene tube. The sample was freeze-dried overnight to constant weight before 0.45 ml of 69% Aristar grade HNO3 was added. The sample tube was heated in a water bath at 65° C. for 60 minutes. The sample was brought to 4.5 ml with Milli-Q H2O. The resulting solution was diluted 2:1 in order to reduce the HNO3 concentration below the maximum permitted for ICP-MS analysis.

[6] = system: diabetic (STZ) and nondiabetic male Wistar rats; remark: listed apart in the source
From the text: as §2, §3, §1
Mean arterial pressure (MAP), heart rate (HR, derived from the MAP waveform) oxygen saturation (Nonin 8600V Pulse Oximeter, Nonin Medical Inc., Minnesota, USA) and core body temperature, were all continuously monitored throughout the experiment using a PowerLab/16s data acquisition module (AD Instruments, Australia).

[7] = diabetic and nondiabetic animals
[8] = STZ/D7 (diabetic, trientine weeks 7-13)
[9] = Sham/D7 (non-diabetic, trientine weeks 7-13)

N=C(N)NN [aminoguanidine]
aortic impedance (diabetic rats): decreases | carotid artery compliance (diabetic rats): increased | myocardial compliance (diabetic rats): prevented the decreased myocardial compliance

NCCNCCNCCN [trientine, N,N′-Bis(2-aminoethyl)-1,2-ethanedi-amine]
serum content or renal clearance of iron, effect of drug [1, 7]: no effect | serum copper content, drug versus saline [1, 7]: no significant difference | renal clearance of copper, drug versus saline ([1]; diabetic animals): significant increase | Renal clearance Cu ([1]; diabetic, n = 6): *28.5 ± 4.8 μl · min^−1 | Renal clearance Fe ([1]; diabetic, n = 6): 0.25 ± 0.07 µL/min | Serum Cu ([1]; diabetic, n = 6): 7.56 ± 0.06 μg · μl^−1 × 10^−4 | Serum Fe ([1]; diabetic, n = 6): 35.7 ± 7.98 μg · μl^−1 × 10^−4 | increase in renal clearance of copper, drug versus saline ([1]; nondiabetic animals (P=0.056)): not statistically significant | Renal clearance Cu ([1]; nondiabetic, n = 4): 19.9 ± 6.4 µL/min | Renal clearance Fe ([1]; nondiabetic, n = 4): 0.46 ± 0.22 µL/min | Serum Cu ([1]; nondiabetic, n = 4): 7.11 ± 0.41 μg · μl^−1 × 10^−4 | Serum Fe ([1]; nondiabetic, n = 4): 33.6 ± 1.62 μg · μl^−1 × 10^−4 | protection of hearts from development of diabetic damage (cardiomyopathy) as judged by histology (diabetic Wistar rats): appears to protect | Heart weight [2, 8]: 1.18 ± 0.24 g | Heart weight (g)/BW (g) [2, 8]: 0.0041 ± 0.0005^ | Left Ventricular wall thickness [2, 8]: 3.79 ± 0.52 mm | Left Ventricular wall thickness per BW [2, 8]: 0.0127 ± 0.0027^ (mm)/(g) | Heart weight [2, 9]: 1.58 ± 0.05 g | Heart weight (g)/BW (g) [2, 9]: 0.0028 ± 0.0001 | Left Ventricular wall thickness [2, 9]: 4.03 ± 0.1 mm | Left Ventricular wall thickness per BW [2, 9]: 0.0072 ± 0.0003 (mm)/(g) | heart:body weight ratio, treated versus untreated diabetic animals ([2]; diabetic animals, trientine weeks 7-13): small but significant improvement | ventricular wall thickness:bodyweight ratio, treated versus non-treated diabetics ([2]; did not reach significance): trend toward improved | blood glucose profile, treated versus untreated comparison group ([2]; either treated group (STZ/D7, Sham/D7), p=ns): no difference | copper excretion versus saline, mixed linear model ([3]; all dose levels): significantly higher excretion of copper | greater iron excretion per gram of body weight in diabetic than nondiabetic animals ([3]; animals receiving trientine): not evident | total iron excretion versus saline ([3]; both diabetic and nondiabetic animals): not different | total copper excreted over the entire duration of the experiment versus saline controls ([3]; both nondiabetic and diabetic animals): significantly increased | increase of urine excretion versus equivalent volume of saline ([3]; diabetic animals, 100 mg·kg^−1 i.v.): not seen | iron excretion (μg), saline versus drug ([3]; diabetic animals, at most doses): greater in animals administered saline than in those administered drug | diabetes x drug interaction effect on copper excretion, mixed linear model ([3]; dose levels of 1.0 mg·kg^−1 and above): significant | total copper per gram of body weight, diabetic versus nondiabetic animals receiving drug ([3]; entire experiment): excreted more total copper per gram of body weight | copper excretion per gram of body weight, diabetic versus nondiabetic animals ([3]; in response to each dose of drug): significantly greater copper excretion per gram of body weight | greater total iron excretion per gram of body weight in diabetic than nondiabetic animals ([3]; in response to trientine): not seen | urine excretion versus equivalent volume of saline ([3]; nondiabetic animals, 100 mg·kg^−1 i.v.): increased urine excretion | Percentage functioning at each afterload ([4]; STZ/D7 (diabetic, trientine weeks 7-13), afterload 55.9 mmHg): 100% | Number surviving (aortic flow >0 mls/min) ([4]; STZ/D7 (diabetic, trientine weeks 7-13, N 8), afterload 55.9 mmHg): 8 | Number surviving (aortic flow >0 mls/min) ([4]; STZ/D7, afterload 61.8 mmHg): 8 | Percentage functioning at each afterload ([4]; STZ/D7, afterload 61.8 mmHg): 100% | Number surviving (aortic flow >0 mls/min) ([4]; STZ/D7, afterload 67.7 mmHg): 8 | Percentage functioning at each afterload ([4]; STZ/D7, afterload 67.7 mmHg): 100% | Number surviving (aortic flow >0 mls/min) ([4]; STZ/D7, afterload 71.4 mmHg): 8 | Percentage functioning at each afterload ([4]; STZ/D7, afterload 71.4 mmHg): 100% | Number surviving (aortic flow >0 mls/min) ([4]; STZ/D7, afterload 77.2 mmHg): 8 | Percentage functioning at each afterload ([4]; STZ/D7, afterload 77.2 mmHg): 100% | Number surviving (aortic flow >0 mls/min) ([4]; STZ/D7, afterload 83.1 mmHg): 8 | Percentage functioning at each afterload ([4]; STZ/D7, afterload 83.1 mmHg): 100% | Number surviving (aortic flow >0 mls/min) ([4]; STZ/D7, afterload 88.3 mmHg): 7 | Percentage functioning at each afterload ([4]; STZ/D7, afterload 88.3 mmHg): 88% | Number surviving (aortic flow >0 mls/min) ([4]; STZ/D7, afterload 94.9 mmHg): 6 | Percentage functioning at each afterload ([4]; STZ/D7, afterload 94.9 mmHg): 75% | Number surviving (aortic flow >0 mls/min) ([4]; STZ/D7, afterload 100.8 mmHg): 5 | Percentage functioning at each afterload ([4]; STZ/D7, afterload 100.8 mmHg): 63% | Number surviving (aortic flow >0 mls/min) ([4]; STZ/D7, afterload 106.7 mmHg): 1 | Percentage functioning at each afterload ([4]; STZ/D7, afterload 106.7 mmHg): 13% | Percentage functioning at each afterload ([4]; Sham/D7 (non-diabetic, trientine weeks 7-13), afterload 55.9 mmHg): 100% | Number surviving (aortic flow >0 mls/min) ([4]; Sham/D7 (non-diabetic, trientine weeks 7-13, N 11), afterload 55.9 mmHg): 11 | Number surviving (aortic flow >0 mls/min) ([4]; Sham/D7, afterload 61.8 mmHg): 11 | Percentage functioning at each afterload ([4]; Sham/D7, afterload 61.8 mmHg): 100% | Number surviving (aortic flow >0 mls/min) ([4]; Sham/D7, afterload 67.7 mmHg): 11 | Percentage functioning at each afterload ([4]; Sham/D7, afterload 67.7 mmHg): 100% | Number surviving (aortic flow >0 mls/min) ([4]; Sham/D7, afterload 71.4 mmHg): 11 | Percentage functioning at each afterload ([4]; Sham/D7, afterload 71.4 mmHg): 100% | Number surviving (aortic flow >0 mls/min) ([4]; Sham/D7, afterload 77.2 mmHg): 11 | Percentage functioning at each afterload ([4]; Sham/D7, afterload 77.2 mmHg): 100% | Number surviving (aortic flow >0 mls/min) ([4]; Sham/D7, afterload 83.1 mmHg): 11 | Percentage functioning at each afterload ([4]; Sham/D7, afterload 83.1 mmHg): 100% | Number surviving (aortic flow >0 mls/min) ([4]; Sham/D7, afterload 88.3 mmHg): 11 | Percentage functioning at each afterload ([4]; Sham/D7, afterload 88.3 mmHg): 100% | Number surviving (aortic flow >0 mls/min) ([4]; Sham/D7, afterload 94.9 mmHg): 11 | Percentage functioning at each afterload ([4]; Sham/D7, afterload 94.9 mmHg): 100% | Number surviving (aortic flow >0 mls/min) ([4]; Sham/D7, afterload 100.8 mmHg): 11 | Percentage functioning at each afterload ([4]; Sham/D7, afterload 100.8 mmHg): 100% | Number surviving (aortic flow >0 mls/min) ([4]; Sham/D7, afterload 106.7 mmHg): 9 | Percentage functioning at each afterload ([4]; Sham/D7, afterload 106.7 mmHg): 82% | cardiac output ([4]; drug treated diabetic group, pre-load increased (5-20 cm H2O), after-load constant): restored to Sham values | aortic and absolute coronary flows ([4]; drug treated diabetic group, pre-load increased, after-load constant): improved | indicators for ventricular contraction and relaxation (+dP/dt, −dP/dt) ([4]; drug treated versus untreated diabetic group): significantly improved | heart's ability to function at higher after-loads ([4]; drug treated versus untreated diabetic group, constant pre-load): greatly improved | adverse effects on cardiac performance ([4]; drug treatment of normal animals (Sham/D7)): no adverse effects | cardiac function overall ([4]; oral trientine for 7 weeks, Wistar rats with established diabetes of 6 weeks duration): global improvement in cardiac function | trientine treated diabetic hearts still functioning ([4]; when 50% of the untreated diabetic hearts had failed): about 90% | effect of drug on cardiac content of iron and copper ([5]; acute i.v. administration): nor any effect of drug | content of copper in cardiac tissue, diabetic versus nondiabetic animals ([5]; animals receiving saline or trientine): no significant difference | Cu content of heart tissue ([5]; diabetic): 24.7 ± 1.5 μg · g^−1 dry tissue | Fe content of heart tissue ([5]; diabetic): 186 ± 46 μg · g^−1 dry tissue | Cu content of heart tissue ([5]; nondiabetic): 27.1 ± 1.0 μg · g^−1 dry tissue | Fe content of heart tissue ([5]; nondiabetic): 235 ± 39 μg · g^−1 dry tissue | adverse cardiovascular effects ([6]; after acute administration, 0.1-100 mg·kg^−1 i.v.): no adverse cardiovascular effects | body temperature and oxygen saturation ([6]; all animals throughout the experiment): remained stable | time for MAP to return to pre-dose levels ([6]; highest dose (100 mg·kg^−1 i.v.)): ≤ 10 min | maximum decrease in MAP ([6]; highest dose (100 mg·kg^−1 i.v.), for the 2 min following administration): 19±4 mm Hg | MAP and HR during infusion ([6]; i.v. hourly increasing doses, all doses except the highest, diabetic and nondiabetic rats): no effect
